{"source": "patent US20110244049A1", "about": "“COMPOSITIONS COMPRISING 4-(2-(5-BROMO-4-(1-CYCLOPROPYLNAPHTHALEN-4-YL)-4H-1,2,4-TRIAZOL-3-YLTHIO)ACETAMIDO)-3-CHLOROBENZOIC ACID AND PHARMACEUTICALLY ACCEPTABLE SALTS THEREOF, AND METHODS FOR PREPARING AND USING SAME” (ARDEA BIOSCIENCES INC., priority 2008, published 2011)", "tested_on": "serum uric acid", "experiment": "Serum uric acid levels on day 9 of the study (Example 6)", "assay_type": "in vivo, human", "experimental": "Human clinical studies using the compositions described in examples 2A, 3A, 4A, 5A were conducted as described: A multi-center, double-blind, placebo-controlled study in 48 treatment-naïve HIV-1-infected subjects, randomized 3:1 (treatment:placebo). Patients were male, 18-65 years with chronic HIV infection, but no history of AIDS-defining illness. Patients were antiretroviral treatment naïve or <14 days prior therapy and had no pre-existing RTI or PI drug resistance and no co-infection with acute HAV, chronic HBV, active HCV. Patient CD4+ cell count was ≧50 cells/mm^3 for 2 cohorts, then ≧200 cells/mm^3 or ≧350 cells/mm^3 depending on site.\nThe compositions were administered over a 7-day treatment period plus one morning dose for PK purposes on day 8. (It should be noted that in some instances multiple doses of the same composition were administered, in order to achieve the required total dose of compound 1; i.e.in order to achieve a dose of 400 mg compound 1, a patient may have taken four 100 mg compositions or two 200 mg compositions, depending on the dosage form.) Four sequential dose cohorts were administered as follows:\nSerum uric acid levels were recorded on day 9 of the study, and are shown in the table below and graphically in FIG. 8."}
{"smiles": "O=C(CSc1nnc(Br)n1-c1ccc(C2CC2)c2ccccc12)Nc1ccc(C(=O)O)cc1Cl", "note": "[Compound 1, 4-(2-(5-bromo-4-(1-cyclopropylnaphthalen-4-yl)-4H-1,2,4-triazol-3-ylthio)acetamido)-3-chlorobenzoic acid]", "values": [{"measurement": "Mean serum UA reduction", "setting": "400 mg BID", "value": "−30", "unit": "%"}, {"measurement": "Mean serum UA reduction", "setting": "600 mg QD", "value": "−21", "unit": "%"}, {"measurement": "Mean serum UA reduction", "setting": "800 mg QD", "value": "−21", "unit": "%"}, {"measurement": "Mean serum UA reduction", "setting": "1000 mg QD", "value": "−28", "unit": "%"}]}
